Values quoted from earlier work as cited in publication PMC4033579 (Journal of experimental therapeutics & oncology, 2012).

Experiments:
[1] = system: breast, ovarian, prostate tumor cells; details: prostate cells in culture

Cc1cc(Nc2nc(N[C@@H](C)c3ncc(F)cn3)ncc2Cl)[nH]n1 [AZD 1840]
cytotoxicity at concentrations that inhibit Tyr705 phosphorylation [1]: not cytotoxic
angiogenesis in human tumor xenografts (human tumor xenografts): reduction in angiogenesis
growth of human tumor xenografts (human tumor xenografts): reduced growth
